Experimental data: US20240294570A1, “ENZYMATICALLY FORMING INTRANUCLEAR PEPTIDE ASSEMBLIES FOR SELECTIVELY KILLING INDUCED PLURIPOTENT STEM CELLS” (BRANDEIS UNIVERSITY, priority 2021, published 2024)
Non-standard residues stand in square brackets, D forms with d. Residues, ends and D or L forms follow the SMILES beside them. No end group written: not given here. *: point of attachment. pY = N[C@@H](Cc1ccc(OP(=O)(O)O)cc1)C(=O)O; NBD = O=[N+]([O-])c1ccc(*)c2nonc12; βAla = NCCC(=O)O

Assays:
[1] = Critical micelle concentration (CMC) measurement with pyrene probe; type: physicochemical; conditions: for CMC of the nanofiber-forming product of dephosphorylation: product after dephosphorylation at 400 μM by ALP (0.5 U/mL)
Procedure: Critical Micelle Concentration ((MC) Measurement: The CMCs were determined using pyrene as the fluorescent probe. Different concentrations of compounds were prepared in pyrene-saturate solutions. The fluorescence spectra of pyrene solutions with different concentration compounds were obtained. The intensity ratio of 378 nm/393 nm (I378/I393) was determined by a Synergy H1 hybrid multi-mode microplate reader. Plot I378/I393 against the concentrations of compounds. The concentration at the turning point is the CMC.

[2] = Degradation in HS-5 cell lysate (LC-MS)
[3] = Enzymatic self-assembly in vitro, nanostructures by TEM; type: physicochemical; conditions: for diameters of nanofibers: after dephosphorylation at 400 μM by ALP (0.5 U/mL)
Procedure: TEM Sample Preparation: After placing 5 μL samples on 400 mesh copper grids coated with continuous thick carbon film (˜35 nm) which is glowed discharged, we washed the grid with ddH2O and UA (uranyl acetate). The sample loaded grid was stained with the UA. The residual UA was removed by filter paper and then dried in air. TEM images were obtained with Morgagni 268 transmission electron microscope.
After obtaining all the precursors, their behaviors for EISA were evaluated in vitro using transmission electron microscopes (TEM) to examine the nanostructures formed before and after the ALP catalyzed dephosphorylation of precursors 5, 7, and 9. […] The critical micelle concentration (CMC) of 5 is 86.1 μM. […] The CMC of 6 is 8.1 μM. Unlike the case of 5, dephosphorylation of 7 or 9 at 400 μM by ALP (0.5 U/mL) produces nanofibers with the diameters of 6±2 nm or 9±2 nm, whose CMC is 87.4 μM or 25.8 μM, respectively.
A key requirement for selectively eliminating iPSCs by EISA is that the L-peptide nanoribbons only form on and in iPSCs, which overexpress ALP, but not on and in the differentiated cells that express normal level of ALP. That is, L-peptide nanoribbons should only rapidly form at high level of ALP, but not at normal level of ALP. […] Thus, after assessing the level of ALP expression in iPSCs, it should be possible to optimizing the initial concentration of a peptide and the time of dephosphorylation, to promote EISA that selectively targets iPSCs.

[4] = tested on: iPSCs; experiment: CLSM imaging of peptide assemblies in iPSCs; type: cell-based, human; conditions: 400 μM, 2 hours
Procedure: Confocal Laser Scanning Microscopy (CLSM) Imaging: For live cell imaging, cells in exponential growth phase were seeded in a confocal dish (3.5 cm) at 1.0×10^5 cells per dish and then incubated in incubator for 24 h. We removed culture medium, and added fresh medium containing precursors for different time points. After removing the medium and washing the cells with live cell imaging solution (2 mL×2), the cells were used for CLSM imaging. For time-dependent live cell imaging, cells in exponential growth phase were seeded in a confocal dish (3.5 cm) at 1.0×10^5 cells per dish and then incubated in incubator for 24 h. After removing culture medium, we treated the cells with 1 mL of Hoechst 33342 (1 μg mL^−1) for 10 minutes. After being washed with culture medium (2 mL×2), the cells were incubated with fresh medium containing precursor 5 in a Tokai Hit stage top incubator (STXF-WSKMX-SET) to be used for CLSM imaging. All the CLSM images were obtained using Zeiss LSM 880 confocal microscopy at the lens of 63× with oil. The lasers used are 405 nm and 488 nm.
Because the fluorescence of NBD increases drastically from unassembled to assembled state, confocal laser scanning microscopy (CLSM) was suitable to reveal the cellular location of the peptide assemblies formed after dephosphorylation catalyzed by ALP. […] The blackness in nuclei overlaps well with the strong fluorescence. […] The results confirms that the nucleus-targeting mainly originates from the ALP catalyzed dephosphorylation.
To trace the dynamics of the formation and distribution of 5 inside iPSC cells, time-lapse CLSM was also used to image the changes of the fluorescence in the iPSCs incubated by 5 (400 μM). Using one cell as a representative case, after 6 minutes incubation fluorescent puncta appear on the membrane, likely originating from the aggregates of assemblies of 5 and those of 6 generated by the dephosphorylation catalyzed by ALP. […] After 24 minutes incubation, fluorescence starts to grow in the cytoplasm. Considering the LLLLY motif in SEQ ID NO: 2 constitutes the transmembrane domains of 18 human membrane proteins, it is possible that the affinity of 5 or 6 to membrane allows the assemblies of the mixture of 5 and 6 to interact with cellular membranes, which then facilitates nuclear localization. At about 28 minutes of incubation, fluorescence appears in the nucleus. Moreover, the nuclei shrink after the assemblies emerge in the nuclei. In addition, the nuclei also show nuclear blebbing (Stephens et al., “Chromatin Histone Modifications and Rigidity Affect Nuclear Morphology Independent of Lamins,” Mol. Biol. Cell 29(2):220-233 (2018), which is hereby incorporated by reference in its entirety). The shrinkage of nuclei and nuclear blebbing likely associate with iPSC death. To further examine the dynamics of EISA-formed peptide assemblies in iPSCs over different time, the increase of fluorescence in two cells over 2 hours was monitored; their nuclei, A and B, are shown in FIG. 10A. […] The mean fluorescent intensity in Nucleus A starts to increase at 28 minutes and levels off after 110 minutes. For Nucleus B, the mean fluorescent intensity keeps increasing from 38 minutes. The increases of the fluorescence in the nuclei and nucleoli are synchronous. […] The assemblies inside the nuclei or near nuclear membrane induce nuclear blebbing and shrinkage of nuclei, which likely contributes to the cell death.

[5] = tested on: iPSCs; experiment: Cell viability of iPSCs (trypan blue); type: cell-based, human; conditions: 400 μM, 2 h
Procedure: Cell Culture: Human induced pluripotent stem cell line A21 was generated from human normal dermal fibroblasts by using the StemRNA™-NM Reprogramming kit (Stemgent, Cat #00-0076). hiPSCs were routinely cultured and passaged on 6-well plates coated with 0.25 μg/cm^2 iMatrix-511 (Recombinant Laminin-511) (ReproCell) with NutriStem XF/FFTM medium (Biological Industries). HS-5 cell line and HEK293 cell line were purchased from American Type Culture Collection (ATCC, USA). HS-5 cells were cultured in Dulbecco's Modified Eagle Medium (DMEM) supplemented with 10% fetal bovine serum (FBS), 100 U/mL penicillin and 100 μg/mL streptomycin. HEK293 cells were cultured in Minimal Essential Medium (MEM) supplemented with 10% fetal bovine serum (FBS), 100 U/mL penicillin and 100 μg/mL streptomycin. All cells were maintained at 37° C. in a humidified atmosphere of 5% CO2.
Cell Viability of iPSC's: iPSCs were plated in 6-well plates and incubated for 24 to 48 hours, then media were replaced with fresh one (2 ml) supplemented with PBS (control) 5 (200 μM, 300 μM, and 400 μM), 7 (400 μM) or 9 (400 μM), and incubated for 2 hours. Media were removed and cells were rinsed with PBS once, fresh normal cultural media were added and incubated for 30 min. All cells were collected and stained with trypan blue, live cells were counted using Cellometer Auto 2000 (Nexcelom Bioscience). Data were obtained by from three independent wells (n=3).

[6] = tested on: ALP; experiment: Dephosphorylation rate measurement (LC-MS); conditions: for conversion ratio to dephosphorylated peptide / half-life at 100 μM / half-life at 200 μM: 0.5 U/mL ALP; for conversion ratio to dephosphorylated peptide: after 5 h of incubation; for half-life at 400 μM / half-life at 100 μM / half-life at 200 μM: alkaline phosphatase (ALP) in PBS; for half-life at 100 μM / half-life at 200 μM: half-life of dephosphorylation
Procedure: The reaction mixtures were analyzed with LC-MS.
Thus, the conversion of the phosphopentapeptides to their corresponding peptides was examined over time.

Row | Compound | critical micelle concentration (CMC) [1] | 6 remaining in HS-5 lysate ([2]; from 200 μM of 5, after 2 h of incubation) | 6 remaining in HS-5 lysate ([2]; from 200 μM of 5, after 4 hours incubation) [%] | self-assembling ability ([3]; formed from 3 upon dephosphorylation by ALP) | CMC of the nanofiber-forming product of dephosphorylation [1] [µM] | NBD fluorescence in iPSCs (location of peptide assemblies) [4] | cytotoxicity against the iPSCs [5] | conversion ratio to dephosphorylated peptide [6] [%] | half-life at 400 μM [6] [h] | half-life at 100 μM [6] [h] | half-life at 200 μM [6] [h] | diameters of nanofibers [3] [nm]
1 | CC(C)C[C@H](NC(=O)CCNc1ccc([N+](=O)[O-])c2nonc12)C(=O)N[C@@H](CC(C)C)C(=O)N[C@@H](CC(C)C)C(=O)N[C@@H](CC(C)C)C(=O)N[C@@H](Cc1ccc(O)cc1)C(=O)O [compound 6, NBD-βA-LLLLY] ({NBD-βAla}-LLLLY-OH) | 8.1 µM | about 20% | 6.01 | – | – | – | – | – | – | – | – | –
2 | 4: de-phosphorylated form of 3: NBD-bAla-Leu-Leu-Leu-Tyr (SEQ ID NO: 1) ({NBD}-[βAla]LLLY) [compound 4] | – | – | – | limited self-assembling ability | – | – | – | – | – | – | – | –
3 | CC(C)C[C@H](NC(=O)[C@H](CC(C)C)NC(=O)[C@H](Cc1ccc(OP(=O)(O)O)cc1)NC(=O)[C@H](CC(C)C)NC(=O)[C@H](CC(C)C)NC(=O)CCNc1ccc([N+](=O)[O-])c2nonc12)C(=O)O [compound 7, NBD-βA-LLpYLL] ({NBD-βAla}-LL[pY]LL-OH) | 159.9 UM | – | – | – | 87.4 | no fluorescence inside the cells | hardly exhibit cytotoxicity | 61.5 | 2.09 | 2.12 | 1.87 | 6±2
4 | CC(C)C[C@@H](NC(=O)CCNc1ccc([N+](=O)[O-])c2nonc12)C(=O)N[C@H](CC(C)C)C(=O)N[C@H](CC(C)C)C(=O)N[C@H](CC(C)C)C(=O)N[C@@H](Cc1ccc(OP(=O)(O)O)cc1)C(=O)O [compound 9, NBD-βA-llllpY] ({NBD-βAla}-[dL][dL][dL][dL][pY]-OH) | 146.8 µM | – | – | – | 25.8 | most of the cells exhibit no fluorescence inside the cells | hardly exhibit cytotoxicity | 93.3 | 0.45 | 0.41 | 0.36 | 9±2
